Values joined by “and” are separate entries in the source; they are usually repeats but may differ in a detail not shown here. Identical values can stand only once. “Also recorded” adds a separate entry of the source.
Key:
Assay type in all cases: physicochemical
[1] = pH solubility assessment in buffers at 37 °C; conditions: 100 mg solid
Description: CHP patterns 1 and 2 were prepared for pH solubility assessment as follows: • 100 mg of CHP pattern 1 and pattern 2 were each weighed out into 4, 5 mL screw top glass vials; • 100 μL of a selected buffer, pre-heated to 37° C., was added to each vial; • Samples were heated to 37° C. in an incubator shaker for ca. 10 minutes after each volume of buffer and checked for sample dissolution.

[2] = Approximate solubility of CHP Pattern 1 by solvent addition technique
Description: The approximate solubility of CHP in 37 selected solvent systems (Table 13) was estimated by solvent addition technique. The following procedure was used: • Approximately 20 mg of CHP Pattern 1 was weighed out into each of 37vials. • Each solvent/solvent mixture was added to the appropriate vial in 5 volume aliquots (100 μL) until dissolution was observed or a maximum of 2 mL solvent was added. • In between additions, the sample was heated to 40° C. to check for dissolution at elevated temperature. • If 2 mL of solvent was added without dissolution of the material, solubility was calculated to be below 10 mg/mL. • After solvent addition, all 37 vials were placed in a fridge to crash cool between 2-8° C. for ca. 18 hours. • Any solids present were isolated by centrifuge filtration and analyzed by XRPD (where material amount allowed). • Where no solids were produced, vials were uncapped and left to evaporate at ambient temperature. • Any solids present were analyzed by XRPD (where material amount allowed).

[3] = Solution state chemical stability in water/acetone and EtOH/water/MtBE (HPLC purity); conditions: 10 mg/ml; for Observation: up to 20 h
Description: Solution state chemical stability of the compound was studied in different solvent systems at different temperatures (Table 4). The solution was held at 50° C. and 80° C., and purity of the solution was tracked. The compound was generally stable for at least 20 hours.

[4] = Dynamic vapor sorption (DVS) at 25 °C with post-DVS XRPD
Description: DVS was carried out by placing an approximately 10-20 mg sample into a mesh vapour sorption balance pan and loaded into a DVS Intrinsic Dynamic Vapour Sorption Balance by Surface Measurement Systems. The sample was subjected to a ramping profile from 40 to 90% relative humidity (RH) at 10% increments, maintaining the sample at each step until a stable weight had been achieved (dm/dt 0.004%, minimum step length 30 minutes, maximum step length 500 minutes) at 25° C. After completion of the sorption cycle, the sample was dried using the same procedure to 0% RH and then a second sorption cycle back to 40% RH. Two cycles were performed. The weight change during the sorption/desorption cycles were plotted, allowing for the hygroscopic nature of the sample to be determined. XRPD analysis was then carried out on any solid retained.
Approximately, 10-20 mg of sample was placed into a mesh vapor sorption balance pan and loaded into a DVS Intrinsic dynamic vapor sorption balance by Surface Measurement Systems. The sample was subjected to a ramping profile from 40-90% relative humidity (RH) at 10% increments, maintaining the sample at each step until a stable weight had been achieved (dm/dt 0.004%, minimum step length 30 minutes, maximum step length 500 minutes) at 25° C. After completion of the sorption cycle, the sample was dried using the same procedure to 0% RH and then a second sorption cycle back to 40% RH. Two cycles were performed. The weight change during the sorption/desorption cycles were plotted, allowing for the hygroscopic nature of the sample to be determined. XRPD analysis was then carried out on any solid retained.

[5] = GMP stability study of CHP anhydrate and CHP hydrate under accelerated conditions (total impurities); conditions: for Growth of total Impurities: 40 °C/75% RH
Description: CHP anhydrate (Pattern 1) and hydrate (Pattern 2) compounds were manufactured under GMP conditions. A stability study for the CHP anhydrate compound was conducted under ccelerated conditions (40±5° C./75±5% RH) for six months and room temperature conditions (25±5° C./60±5% RH) for 12 months. A further stability study for the CHP hydrate compound was conducted under accelerated conditions (40±5° C./75±5% RH) for 6 months (Table 18).

[6] = pKa analysis via potentiometric acid/base titration
Description: pKa analysis was carried out on Pattern 1 via a potentiometric technique which is acid/base titration to determine the pKa point.

## O=C1N[C@@H](Cc2cnc[nH]2)C(=O)N2CCC[C@@H]12 [Pattern 1, Cyclo (-His-Pro)]
[1]; buffer pH 1
  μL for Dissolution at 37° C.: 300 µL
[1]; buffer pH 4
  μL for Dissolution at 37° C.: 300 µL
[1]; buffer pH 6.8
  μL for Dissolution at 37° C.: 300 µL
[1]; buffer pH 7.2
  μL for Dissolution at 37° C.: 300 µL
[2]; THF
  Approximate Solubility: ≤ 10 mg/mL
[2]; acetone
  Approximate Solubility: ≤ 10 mg/mL
[2]; acetonitrile
  Approximate Solubility: ≤ 10 mg/mL
[2]; water
  Approximate Solubility: ≥ 200 mg/mL
[2]; water:acetone [90:10]
  Approximate Solubility: ≥ 200 mg/mL
[3]; (EtOH:H2O = 9:1):MTBE = 1:3 (v/v), 50 °C, 0 h
  Purity (a %): 99.82%
[3]; (EtOH:H2O = 9:1):MTBE = 1:3 (v/v), 50 °C, 2 h
  Purity (a %): 99.77%
[3]; (EtOH:H2O = 9:1):MTBE = 1:3 (v/v), 50 °C, 20 h
  Purity (a %): 99.82%
[3]; (EtOH:H2O = 9:1):MTBE = 1:3 (v/v), 50 °C
  Observation: No change
[3]; EtOH:H2O = 9:1 (v/v), 50 °C, 0 h
  Purity (a %): 99.76%
[3]; EtOH:H2O = 9:1 (v/v), 50 °C, 2 h
  Purity (a %): 99.86%
[3]; EtOH:H2O = 9:1 (v/v), 50 °C, 20 h
  Purity (a %): 99.69%
[3]; EtOH:H2O = 9:1 (v/v), 50 °C
  Observation: No change
[3]; H2O, 80 °C, 0 h
  Purity (a %): 99.82%
[3]; H2O, 80 °C, 2 h
  Purity (a %): 99.77%
[3]; H2O, 80 °C, 20 h
  Purity (a %): 99.82%
[3]; H2O, 80 °C
  Observation: No change
[3]; H2O:Acetone = 0.5:9.5 (v/v), 50 °C, 0 h
  Purity (a %): 99.77%
[3]; H2O:Acetone = 0.5:9.5 (v/v), 50 °C, 2 h
  Purity (a %): 99.72%
[3]; H2O:Acetone = 0.5:9.5 (v/v), 50 °C, 20 h
  Purity (a %): 99.73%
[3]; H2O:Acetone = 0.5:9.5 (v/v), 50 °C
  Observation: No change
[4]; after DVS cycles at 25 °C
  Post-DVS XRPD form: a new form, assigned as pattern 2; also recorded: re-crystallized to pattern 2
[4]; between 0 and 90% RH, 25 °C
  DVS maximum uptake after conversion to Pattern 2: 0.8 wt %
[4]; from 60% RH to 90% RH, 25 °C
  DVS weight gain (change in mass): 6.3%
[5]; 0M
  Growth of total Impurities: 0%
[5]; 1M
  Growth of total Impurities: 0%
[5]; 3M, listed as CHP anhydrate (pattern 1)
  Growth of total Impurities: 0.27%
[5]; 6M, listed as CHP anhydrate (pattern 1)
  Growth of total Impurities: 0.53%
[5]; during the stability study
  Water content reached by moisture absorption: 7%
[6]
  pKa: 6.4 and 6.38

— US12534496B2, “Polymorphic forms of Cyclo (-His-Pro) and methods of use to treat kidney disease” (NovMetaPharma Co., Ltd., priority 2018, dated 2026)
